Tested on: CD14+ blood monocytes
Assay: Multiplex xMAP cytokine production, direct stimulation of monocytes
Type: cell-based, human
Details: 24 h
Description: Primary peripheral blood mononuclear cells (PBMCs) collected from healthy donors were purchased from American Type Culture Collection (ATCC PCS-800-011). Primary CD14^+ blood monocytes were isolated from PBMCs by adherence according to standard technique. Monocyte-derived mature dendritic cells (moDCs) were obtained from CD14^+ blood monocytes according to the previously reported protocol. Briefly, blood monocytes were incubated in a complete RPMI-1640 medium (Capricorn Scientific, Ebsdorfergrund, Germany), containing 10% fetal bovine serum (FBS, Capricorn Scientific, Ebsdorfergrund, Germany), 1× antibiotic-antimycotic solution (Invitrogen, Waltham, MA, USA), 800 U/mL rhGM-CSF (Sci-Store, Moscow, Russia) and 500 U/mL rhIL-4 (Sci-Store) for 3 days in CellXpert C170i CO2-incubator (Eppendorf, Hamburg, Germany). Fresh complete RPMI-1640 medium with rhGM-CSF and rhIL-4 was added to the culture on day 3. On day 5, fresh complete RPMI-1640 containing 100 U/mL rhTNF-α (Sigma-Aldrich, St. Louis, MO, USA) as well as 800 U/mL rhGM-CSF and 500 U/mL rhIL-4 was added and the culture was incubated for another 4 days until full maturation.
Monocytes and moDCs were seeded into the wells of 48- and 24-well plates in the complete RPMI-1640 medium supplemented with 10% human AB serum (HABS, Capricorn Scientific) without antibiotics 24 h prior to the experiment, and kept in a humidified CO2-incubator (5% CO2, 37 °C). After 24 h, the medium in the wells of the 48-well plate was replaced by fresh complete RPMI-1640 medium with 10% HABS, supplemented with 2 µM of Psd1 for the sample wells or fresh medium alone for the control wells. Medium in the wells of the 24-well plate was replaced by fresh complete RPMI-1640 medium with 10% human serum without antibiotics. Then, Millicell inserts with Caco-2 monolayers with TEER > 400 Ωcm^2 were placed into the wells of the 24-well plate, containing monocytes or moDCs. Wells with Millicell inserts with Caco-2 monolayers without immune cells were used as control wells. Medium in apical chambers of Millicell inserts was replaced by fresh complete RPMI-1640 with 10% human serum medium containing Psd1 at the final concentration of 2 µM or Candida albicans at the concentration of 5 × 10^4 cells/mL or yeast cells together with the pea defensin at the same concentration. Fresh complete RPMI-1640 medium only with 10% human serum and without antibiotics was used in control wells. Plates were kept in CO2-incubator (5% CO2, 37 °C) for another 24 h. Culture supernatants from the wells of the 48-well plate and basolateral chambers of the 24-well plate were collected and stored at −70 °C degrees less than one month prior to the analytes assessment.
The following 48 analytes were measured at a protein level by multiplex xMAP technology using the MILLIPLEX Human Cytokine/Chemokine/Growth Factor Panel A kit (HCYTA-60K-PX48, Merck, Darmstadt, Germany): sCD40L, EGF, Eotaxin-1/CCL11, FGF-2/FGF-basic, Flt-3 ligand, Fractalkine/CX3CL1, G-CSF, GM-CSF, GROα/CXCL1, IFNα2, IFNγ, IL-1α, IL-1β, IL-1RA, IL-2, IL-3, IL-4, IL-5, IL-6, IL-7, IL-8/CXCL8, IL-9, IL-10, IL-12(p40), IL-12(p70), IL-13, IL-15, IL-17A/CTLA8, IL-17E/IL-25, IL-17F, IL-18, IL-22, IL-27, IP-10/CXCL10, MCP-1/CCL2, MCP-3/CCL7, M-CSF, MDC/CCL22, MIG/CXCL9, MIP-1α/CCL3, MIP-1β/CCL4, PDGF-AA, PDGF-AB/BB, RANTES/CCL5, TGFα, TNFα, TNFβ, and VEGF-A. Multiplex-based assay read-out was performed using the MAGPIX system (Merck) with the xPONENT 4.2 software (Merck) in accordance with the manufacturer’s instruction with overnight incubation of the samples with primary antibodies. A final analysis was carried out with the MILLIPLEX Analyst v5.1 software (Merck). Measurements were performed twice for each sample. Release of the analytes in control and experimental samples was compared with an unpaired two-sample t-test using GraphPad Prism v.8.0.1 (GraphPad Software, Inc., San Diego, CA, USA). The p values ≤ 0.05 were considered significant.

Psd1: pea defensin from Pisum sativum (UNIPROT P81929), recombinant peptide overexpressed in Escherichia coli (KTCEHLADTYRGVCFTNASCDDHCKNKAHLISGTCHNWKCFCTQNC; UniProt P81929 1-46, looked up)
EGF level (Mono+Psd1, 2 µM, supernatant): 8.15 pg/mL | Eotaxin level (Mono+Psd1, 2 µM, supernatant): <3.52↓ pg/ml | FGF-2 level (Mono+Psd1, 2 µM, supernatant): 41.38 pg/mL | FLT-3L level (Mono+Psd1, 2 µM, supernatant): 0.65 pg/mL | Fractalkine level (Mono+Psd1, 2 µM, supernatant): <17.82↓ pg/ml | G-CSF level (Mono+Psd1, 2 µM, supernatant): 52.17 pg/mL | GM-CSF level (Mono+Psd1, 2 µM, supernatant): 12.61 pg/mL | GROa level (Mono+Psd1, 2 µM, supernatant): 1254 pg/mL | IFNa2 level (Mono+Psd1, 2 µM, supernatant): 12.78 pg/mL | IFNg level (Mono+Psd1, 2 µM, supernatant): <2.23↓ pg/ml | IL-1RA level (Mono+Psd1, 2 µM, supernatant): 4.01 pg/mL | IL-1a level (Mono+Psd1, 2 µM, supernatant): 14.17 pg/mL | IL-1b level (Mono+Psd1, 2 µM, supernatant): <2.26↓ pg/ml | IL-2 level (Mono+Psd1, 2 µM, supernatant): 1.12 pg/mL | IL-3 level (Mono+Psd1, 2 µM, supernatant): <0.60↓ pg/ml | IL-4 level (Mono+Psd1, 2 µM, supernatant): <1.14↓ pg/ml | IL-5 level (Mono+Psd1, 2 µM, supernatant): <0.30↓ pg/ml | IL-6 level (Mono+Psd1, 2 µM, supernatant): 478.09 pg/mL | IL-7 level (Mono+Psd1, 2 µM, supernatant): <0.38↓ pg/ml | IL-8 level (Mono+Psd1, 2 µM, supernatant): 6178 pg/mL | IL-9 level (Mono+Psd1, 2 µM, supernatant): 3.19 pg/mL | IL-10 level (Mono+Psd1, 2 µM, supernatant): 22.94 pg/mL | IL-12 (p40) level (Mono+Psd1, 2 µM, supernatant): 19.24 pg/mL | IL-12 (p70) level (Mono+Psd1, 2 µM, supernatant): <1.68↓ pg/ml | IL-13 level (Mono+Psd1, 2 µM, supernatant): 11.06 pg/mL | IL-15 level (Mono+Psd1, 2 µM, supernatant): 1.44 pg/mL | IL-17A level (Mono+Psd1, 2 µM, supernatant): 3.18 pg/mL | IL-17E/IL-25 level (Mono+Psd1, 2 µM, supernatant): <18.85↓ pg/ml | IL-17F level (Mono+Psd1, 2 µM, supernatant): <19.03↓ pg/ml | IL-18 level (Mono+Psd1, 2 µM, supernatant): 0.8 pg/mL | IL-22 level (Mono+Psd1, 2 µM, supernatant): 10.35 pg/mL | IL-27 level (Mono+Psd1, 2 µM, supernatant): 59.83 pg/mL | IP-10 level (Mono+Psd1, 2 µM, supernatant): 165.32 pg/mL | M-GSF level (Mono+Psd1, 2 µM, supernatant): 29.48 pg/mL | MCP-1 level (Mono+Psd1, 2 µM, supernatant): 6617 pg/mL | MCP-3 level (Mono+Psd1, 2 µM, supernatant): 371.63 pg/mL | MDC level (Mono+Psd1, 2 µM, supernatant): 864.86 pg/mL | MIG level (Mono+Psd1, 2 µM, supernatant): 1166 pg/mL | MIP-1a level (Mono+Psd1, 2 µM, supernatant): 118.6 pg/mL | MIP-1b level (Mono+Psd1, 2 µM, supernatant): 254.87 pg/mL | PDGF-AA level (Mono+Psd1, 2 µM, supernatant): 26.77 pg/mL | PDGF-AB/BB level (Mono+Psd1, 2 µM, supernatant): 543.88 pg/mL | RANTES level (Mono+Psd1, 2 µM, supernatant): 59.35 pg/mL | TGF-a level (Mono+Psd1, 2 µM, supernatant): 2.23 pg/mL | TNFa level (Mono+Psd1, 2 µM, supernatant): 90.69 pg/mL | TNFb level (Mono+Psd1, 2 µM, supernatant): 2.7 pg/mL | VEGFa level (Mono+Psd1, 2 µM, supernatant): 4.16 pg/mL | sCD40L level (Mono+Psd1, 2 µM, supernatant): 98.67 pg/mL | increase in IL-12, IL-15, IL-27 and MCP-1 (monocytes, 2 μM): failed to reach statistical significance | production of TNFα, IL-6, IL-8, IP-10, MCP-3, and G-CSF (monocytes, 2 μM): increased

From publication PMC10178127, “Immunomodulatory Effects of the Pea Defensin Psd1 in the Caco-2/Immune Cells Co-Culture upon Candida albicans Infection” (International Journal of Molecular Sciences, 2023)
